One test concerns breast cancer. The settings on record: adjuvant therapy for 5 years, cited from earlier work.
The subject of a further test is MCF7-SHON cells. As to the kind of experiment: Total cell number assays in MCF7-Vec and MCF7-SHON stable cells. In kind it is cell-based, human. The method, then: (§1) FIGS. 12A-C. SHON is an estrogen inducible gene. (A) RT-PCR. MCF-7 cells were cultured for 24 h in RPMI media containing 10% foetal bovine serum (FBS). Prior to 17β-estradiol (E2) treatment, cells were further cultured for 72 h in phenol red-free medium containing 10% charcoal stripped-FBS. Cells were then treated with 10 nM of E2. Total RNAs were isolated from the cells at indicated time points and the expression of SHON mRNA was determined by One-Step RT-PCR kits (Qiagen) with the SHON-specific primer pairs of SHONc5 and SHONc3 (Table 1). β-ACTIN was included as the RNA input control using forward primer: 5′-ATCATATCGCCGCGCTCG-3′ (SEQ ID NO: 9) and reverse primer: 5′-CGCTCGGTGAGGATCTTCA-3′ (SEQ ID NO: 10). The bp sizes of amplified products are shown on the right. (B) MCF7-Vec and MCF7-SHON cells were treated with DMSO vehicle (−) or 10 nM of E2 (+) for 72 h in phenol red-free medium containing 10% charcoal stripped-FBS. The expression of SHON in whole cell lysates was determined by Western blot with the rabbit polyclonal SHONα antibody. Molecular weights of detected protein bands are shown on the right. (C) Total cell number assays. MCF7-Vec and MCF7-SHON stable cells were seeded in phenol-red free RPMI media with 10% charcoal stripped FBS. […] The cell number was determined at the days indicated. […] The cell number was determined at the indicated days. **, P<0.01; ***, P<0.001. […]

The subject of a further test is SHON. In words: SHON expression in MCF-7 cells after 17β-estradiol treatment (RT-PCR, Western blot). In kind it is cell-based, human. The method, then: as §1

Each structure is given as a SMILES string.

On to `CC/C(=C(\c1ccccc1)c1ccc(OCCN(C)C)cc1)c1ccccc1` [tamoxifen], for which the “absolute reduction in mortality” value with breast cancer (at 15 years) is listed as 9.2%. Further, in the test with breast cancer, the “reduction in the annual breast cancer death rate” value was 34%.

Turning to `C[C@]12CC[C@@H]3c4ccc(O)cc4C[C@@H](CCCCCCCCC[S+]([O-])CCCC(F)(F)C(F)(F)F)[C@H]3[C@@H]1CC[C@@H]2O` (stereo partly drawn) [ICI 182780], in the test on MCF7-SHON cells (100 nM ICI, ER+ MCF-7 cells), the SHON-stimulated growth entry is reported as “partially attenuated SHON-stimulated growth advantages”.

With `C[C@]12CC[C@@H]3c4ccc(O)cc4CC[C@H]3[C@@H]1CC[C@@H]2O` [E2, 17β-estradiol], the cell number result with MCF7-SHON cells (10 nM E2, MCF7-SHON compared with MCF-Vec cells) is on record as “synergistic increase in cell number”. Further, the “SHON mRNA levels” value with SHON (10 nM E2, MCF-7 cells, RT-PCR) is listed as “increase in SHON mRNA levels in a time dependent manner”. Also, the SHON protein expression result in the test on SHON (10 nM E2 for 72 h, MCF7-Vec and MCF7-SHON cells, Western blot) was “increased”.

Source of the values: US20210018504A1, “SHON AS A PROGNOSTIC BIOMARKER FOR CANCER AND AS A PREDICTOR OF RESPONSE TO ENDOCRINE THERAPY” (priority 2012, published 2021).
